Experimental data: patent US9580513B2, “VHZ for diagnosis and treatment of cancers” (AGENCY FOR SCIENCE, TECHNOLOGY AND RESEARCH (A*STAR), priority 2008, dated 2017)

T1: VHZ-GST (Homo sapiens, UniProt Q9BVJ7)
T1 construct: made in house
T1 sequence (Q9BVJ7 1-150): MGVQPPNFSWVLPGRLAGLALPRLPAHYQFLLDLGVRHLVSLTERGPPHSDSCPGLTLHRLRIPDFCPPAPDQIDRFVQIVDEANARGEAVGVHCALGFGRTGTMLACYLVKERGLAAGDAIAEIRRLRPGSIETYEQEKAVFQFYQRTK

B1: VHZ human/mouse Chimeric mAb (Clone #209): mouse variable regions of hybridoma clone #209 (SEQ ID NO: 4 and 5) joined with human IgG1 constant region (antibody, listed as Mus musculus, V domains shown)
VH: LVDMDSRLNLVFLVLILKGVQCDVQLVESGGGLVQPGGSRKLSCAASGFTFSSFGMHWVRQAPEKGLEWVAYISSGSSTIYYADTVKGRFTISRDNPKNTLFLQMTSLRSEDTAMYYCARWQTARATRGYAMDYWGQGTSVTVSS
VL: VMTQSHKFMSTSVGDRVSITCKASQDVNTAVAWYQQKPGQSPKLLIYSASYRFTGVPDLFTGSGSGTDFTFTINSVQAEDLAVYYCQQHYSSPWTFGGGTKLEIKRADAAPTVSIFHHPVSLG
modifications: human IgG1 constant regions lacking entries

Legend:
VHZ-GST = molecular target: T1, VHZ-GST; assay: Tyrosine phosphatase assay (ENZCHEK kit, fluorogenic substrate); assay type: biochemical; conditions: 10 μM sodium orthovanadate added to the reaction; 0.675 picomoles VHZ-GST
Experimental: FIG. 3A. We test each protein (0.675 picomoles) for its PTPase activity.
The ENZCHEK™ kit (Invitrogen, R22065) is used. As per the manufacturer's protocol, the fluorogenic substrate is reconstituted in the assay wells with buffer; the desired potential PTPases (0.675 picomole for each protein: VHZ-GST, VHZ-GST+Phosphatase inhibitor, VHZ(C95S)-GST, and control GST) are added to the wells and incubated 30 min or 90 min respectively. The fluorescence is then quantified using a Gemini XPS microplate spectrofluorometer (Molecular Devices). Fluorescence is measured at 10 minute intervals at the excitation and emission wavelengths of 358 and 452 nm, respectively. The phosphatase inhibitor sodium orthovanadate (10 μM) is used in the assay as a negative control.
The PTPase activities of VHZ-GST, indicated by increasing blue fluorescence (excitation/emission maxima ˜358/452 nm), are abolished either by mutation of Cys 95 to Ser or by adding phosphatase inhibitor (sodium orthovanadate) into the assay (FIG. 3A, Panel A).

[1] = system: HCT116 colon cancer cells that express VHZ; assay: Formation of tumours by HCT116 colon cancer cells injected via the tail vein of nude mice; assay type: in vivo; conditions: 1×10^6 HCT116 cells via tail vein on day 1; chimeric mAb into tail vein from day 3, then two administrations weekly; compared with PBS (untreated)
Excerpt: FIG. 15B. Either PBS (untreated) or chimeric mAb (treated) is administrated into tail vein starting the first treatment on day 3; followed by two administrations weekly. Experiment periods: Top two animals starting 11 Feb.-2 Apr. 2009 bottom two animals starting 11 Feb.-13 Apr. 2009.
All animal studies have been approved by the Institutional Review Board of the IMCB. We follow strictly rules and policies of the Animal Facility Center of The Agency for Science, Technology and Research (A* STAR), Singapore. Nine-week old nude mice (Jackson Labs, USA) are used.
By western blot we confirm that HCT116 colon cancer cell line is VHZ positive comparing with MDCK cell line. 1×10^6 HCT116 cancer cells were injected into the circulation of nude mice via the tail vein on day 1.
Either PBS (untreated) or chimeric mAb (treated) was administrated into tail vein starting the first treatment on day 3; followed by two administrations weekly. Experiment periods: Top two animals starting 11 Feb.-2 Apr. 2009 bottom two animals starting 11 Feb.-13 Apr. 2009.

Row | Molecule | PTPase activity of VHZ (VHZ-GST) | formation of tumours by HCT116 colon cancer cells [1]
1 | [Na+].[Na+].[Na+].[O]=[V]([O-])([O-])[O-] [sodium orthovanadate] | completely abolished | –
2 | B1 | – | effectively inhibits the formation of tumours
